Laboratory results reported in paper PMC5175284, “Mechanistic Study of Tetrahydrofuran- acetogenins In Triggering Endoplasmic Reticulum Stress Response-apotoposis in Human Nasopharyngeal Carcinoma” (Scientific Reports, 2016).
Read-outs that look alike come from different tables or passages of the source. * marks the point of attachment. Cbz = O=C(OCc1ccccc1)*; CH2F = FC*

Experiments:
[1] = system: NPC-TW01 cells; assay: Mitochondrial Ca2+ concentration (Rhod-2, flow cytometry); type: cell-based, human; details: 24 hours
Method: (§1) The cytosolic and mitochondrial Ca^2+ concentrations were measured using fluo-3 and Rhod-2, respectively. The intensity of de-esterification of intracellular AM esters in the THF-ACGs treated or control tumor cells were measured after 30 mins of incubation. For each analysis, 10,000 events were recorded and results were analyzed using De Novo software.

[2] = system: NPC-TW01 cells; assay: Growth inhibition assay (MTT), NPC-TW01; type: cell-based; details: Homo sapiens
Method: (§2) The colorimetric assay for cellular growth and survival was performed as described by Hansen et al., with slight modifications. Pre-determinate numbers of cells were seeded in a 96-well microplate and designated compounds at various concentrations were added for the indicated time period. MTT containing solution was added after compound treatment and conversion of MTT to formazan by metabolically viable cells was measured by absorbance at 490 nm in a 96-well microtiter plate reader. The percentage of conversion by mock-treated control cells was used to evaluate the effect of the chemicals on cell growth and to determine the IC50 concentration.

[3] = system: HONE-1 cells; assay: Growth inhibition assay (MTT), HONE-1; type: cell-based; details: Homo sapiens, HONE1, treated for three generations, read-out: Growth inhibitory activity IC50, HONE-1
Method: as §2

[4] = system: FaDu cells; assay: Growth inhibition assay (MTT), FaDu; type: cell-based; details: Homo sapiens, treated for three generations, read-out: Growth inhibitory activity IC50, FaDu
Method: as §2

[5] = system: Jurkat cells; assay: Growth inhibition assay (MTT), Jurkat; type: cell-based; details: Homo sapiens, treated for three generations, read-out: Growth inhibitory activity IC50, Jurkat
Method: as §2

[6] = system: H226 cells; assay: Growth inhibition assay (MTT), H226; type: cell-based; details: Homo sapiens, NCI-H226, treated for three generations, read-out: Growth inhibitory activity IC50, H226
Method: as §2

[7] = system: Hep 3B cells; assay: Growth inhibition assay (MTT), Hep 3B; type: cell-based; details: Homo sapiens, Hep3B, treated for three generations, footnote a, read-out: Growth inhibitory activity IC50, Hep 3B
Method: as §2

[8] = system: HT-1080 cells; assay: Growth inhibition assay (MTT), HT-1080; type: cell-based; details: Homo sapiens, treated for three generations, read-out: Growth inhibitory activity IC50, HT-1080
Method: as §2

[9] = system: Detroit 551 cells; assay: Growth inhibition assay (MTT), Detroit 551 normal fibroblasts; type: cell-based; details: Homo sapiens, treated for three generations, read-out: Growth inhibitory activity IC50, Detroit 551
Method: as §2

[10] = system: TW01-R-MTX cells; assay: Growth inhibition assay (MTT), methotrexate-resistant NPC-TW01; type: cell-based; details: Homo sapiens, drug-resistant cell line, three generations, read-out: Growth inhibitory activity IC50, TW01-R-MTX
Method: as §2

[11] = system: HONE R-MTX cells; assay: Growth inhibition assay (MTT), methotrexate-resistant HONE-1; type: cell-based; details: Homo sapiens, HONE1, drug-resistant cell line, three generations, read-out: Growth inhibitory activity IC50, HONE R-MTX
Method: as §2

[12] = system: OECM-1 cells; assay: Growth inhibition assay (MTT), OECM-1; type: cell-based; details: Homo sapiens, OECM1, Supplemental Table 1, read-out: Growth inhibitory activity IC50, OECM-1
Method: as §2

[13] = system: SCC-15 cells; assay: Growth inhibition assay (MTT), SCC-15; type: cell-based; details: Homo sapiens, Supplemental Table 1, read-out: Growth inhibitory activity IC50, SCC-15
Method: as §2

[14] = system: SCC-25 cells; assay: Growth inhibition assay (MTT), SCC-25; type: cell-based; details: Homo sapiens, Supplemental Table 1, read-out: Growth inhibitory activity IC50, SCC-25
Method: as §2

[15] = system: NPC-TW01 cells; assay: Cell cycle distribution by PI staining and flow cytometry; type: cell-based, human; details: IC50 concentration, 24 hours
Method: To measure the THF-ACGs effect on the cell cycle distribution, the THF-ACGs-treated cells were collected, fixed with ice-cold alcohol, treated with RNase and stained with propidium iodide. The DNA content of each sample was evaluated by FACScan flow cytometer and ratio of cell cycle phases were determined by ModFit software (Verity Software House Inc., Topsham, ME).

[16] = system: NPC-TW01 cells; assay: Annexin-V/PI apoptosis assay by flow cytometry; type: cell-based, human; details: IC50 concentration, 36 hours
Method: THF-ACGs induced apoptotic phenomena were monitored by The Annexin V-FITC Apoptosis Detection Kit II (BD Biosciences Pharmingen) according to the manufacturer’s instructions. Briefly, THF-ACGs-treated or control cells were collected and resuspended in 400 μL 1 × binding buffer at a concentration of ~1 × 10^6 cells/ml, and 5 μL of purified recombinant Annexin V and PI reagent were added. After incubation at room temperature for 15 min in the dark, the intensity of Annexin V and PI was measured by flow cytometer immediately and results were analyzed using De Novo software (MultiCycle AV Plug-in for FCS Express).

[17] = system: NPC-TW01 cells; assay: Cytosolic Ca2+ concentration (Fluo-3, flow cytometry); type: cell-based, human; details: IC50 concentration, 24 hours
Method: as §1

[18] = system: NPC-TW01 cells; assay: Mitochondrial membrane potential (DiOC6 staining, flow cytometry); type: cell-based, human; details: IC50 concentration, 24 hours
Method: To measure the change of mitochondrial potential transition (MPT), THF-ACGs treated cells were labeled with 100 nM DiOC6, harvested and suspended in PBS. The intensity of DiOC6 in cells was measured using FACScan flow cytometer.

[19] = system: NPC-TW01 xenograft; assay: NPC-TW01 s.c. xenograft antitumor experiment; type: in vivo, BALB/c nude mice; details: squamostatin A 0.5 mg/kg i.p. every three days; paclitaxel 10 mg/kg weekly
Method: For the antitumor xenograft experiments, specific pathogen–free male athymic BALB/c nude mice, 6 to 8 weeks of age, were inoculated with 1 × 10^6 of exponential growth viable NPC-TW01 cells at the right flank of mice and mice were randomly divided into three groups (8 in each group). Tumor-implanted mice were treated i.p. with vehicle (5% DMSO/10% cremophor/85% saline) or 0.5 mg/kg squamostatin A every three days. Paclitaxel (10 mg/kg, once a week) was used as a positive control. Tumor size was measured every three days with a caliper, and tumor volume was calculated by the following formula: V = (1/2) × […]. At the end of the experiments, the animals were euthanized by carbon dioxide inhalation, followed by cervical dislocation. The animal experiments were supervised and approved by the Institutional Animal Care and Use Committee (IACUC) of China Medical University (Taichung, Taiwan). All animal studies were performed in accordance with the Animal Protection Act of Taiwan.

[20] = system: NPC-TW01 cells; assay: Caspase inhibition assay (MTT cell survival); type: cell-based, human; details: pretreated 1 hour, squamostatin A for 72 hours
Method: For caspase inhibition experiments, cell-permeable and irreversible inhibitors of caspase-12 were added to the medium one hour before the administration of squamostatin A. Cell survival was determined using the MTT assay to evaluate the effects of the test compound on cell growth, as described previously.

[21] = treated for three generations, read-out: Growth inhibitory activity IC50, NPC-TW01

With `NCCOB(c1ccccc1)c1ccccc1` [2-APB, 2-Aminoethoxydiphenyl borate, reference compound] the “Content of mitochondrial calcium on squamostatin A treatment in the presence of 2-APB” value ([1]; 2-APB 10 μM, squamostatin A IC50 concentration) was “diminish the content of mitochondrial calcium”.

Compound `CCCCCCCCCCCC[C@@H](O)[C@H]1CC[C@@H]([C@@H](O)CCCCC(=O)CCCCCCCC2=C[C@H](C)OC2=O)O1` [corossolone] has an IC50 ([2]; Supplemental Table 1, read-out: Growth inhibitory activity IC50, NPC-TW01 (Supplemental Table 1)) of 0.0313 µM, an IC50 [2, 21] of 0.121 µM and an IC50 [3] of 0.132 µM. The IC50 ([4]; footnote a) was > 2 µM, the IC50 [5] was 0.0003 µM and the IC50 ([6]; footnote a) was > 2 µM. The IC50 [7] was > 2 µM, the IC50 [8] was 0.705 µM and the IC50 [9] was 0.354 µM. The IC50 [10] was 0.0288 µM, the IC50 [11] was 0.147 µM and the IC50 [12] was > 2 µM. The IC50 [13] was > 2 µM, the IC50 [14] was > 2 µM and the “Cell cycle distribution, G0/G1” value [15] was 40.9%. For the same compound, the “Cell cycle distribution, G2/M” value [15] was 30.5%, the “Cell cycle distribution, S” value [15] was 28.6% and the “Annexin-V positive, E (early phase apoptosis)” value [16] was 4.9%. For the same compound, the “Annexin-V positive, L (late phase apoptosis)” value [16] was 7.4%, the “Ca2+ Cytosol (Fluo-3) GEO mean value, Treated” value [17] was 149.2 and the “Ca2+ Mitochondria (Rho-2) GEO mean value, Treated” value ([1]; IC50 concentration) was 149.2. The “Increase of mitochondrial Ca2+ (Rho-2) vs Ctrl” value ([1]; IC50 concentration) was 29%, the “Decrease of mitochondrial membrane potential vs Ctrl” value [18] was 27% and the “Mitochondrial membrane potential GEO mean value, Treated” value [18] was 777.

`CN(Cc1cnc2nc(N)nc(N)c2n1)c1ccc(C(=O)N[C@@H](CCC(=O)O)C(=O)O)cc1` [methotrexate, reference compound] gave an IC50 [2, 21] of 0.043 µM, an IC50 [3] of 0.0657 µM and an IC50 [4] of 0.0921 µM. For the same compound, the IC50 [5] was 0.0183 µM, the IC50 [6] was 0.0398 µM and the IC50 [7] was > 2 µM. The IC50 [8] was 0.0141 µM, the IC50 ([9]; footnote a) was 2 µM and the IC50 ([10]; footnote b) was 1900 µM. For the same compound, the IC50 ([11]; footnote a) was 39.6 µM.

For `CC(=O)O[C@H]1C(=O)[C@@]2(C)[C@H]([C@H](OC(=O)c3ccccc3)[C@]3(O)C[C@H](OC(=O)[C@H](O)[C@@H](NC(=O)c4ccccc4)c4ccccc4)C(C)=C1C3(C)C)[C@]1(OC(C)=O)CO[C@@H]1C[C@@H]2O` [paclitaxel, Paclitaxel], the “Overall tumor volume between weeks 6 and 13” value [19] was “tumor continued growth slowly”.

With Cbz-ATAD-CH2F the “Effect of caspase-12 inhibitor pretreatment on squamostatin A toxicity against NPC-TW01 cell growth” value [20] was “significantly block the toxicity of squamostatin A”.
